Our source for the MIC values is ChEMBL document CHEMBL3822420, “New peptide deformylase inhibitors design, synthesis and pharmacokinetic assessment” (Bioorg Med Chem Lett, 2016).

By MIC is commonly meant the lowest concentration that inhibits growth of the organism.

Values after ≈ are worked out from the molar mass of the structure shown.

Holding throughout (format): functional
For test [1], the system named is Staphylococcus epidermidis. The test is described as follows: Antibacterial activity against methicillin-sensitive Staphylococcus epidermidis 14-2.
Test [2] has as its system Staphylococcus aureus. As to the kind of experiment: Antibacterial activity against methicillin-resistant Staphylococcus aureus 14-5.
Test [3] relates to Staphylococcus epidermidis. The test is described as follows: Antibacterial activity against methicillin-resistant Staphylococcus epidermidis 14-3.
Test [4] relates to Enterococcus faecalis. As to the kind of experiment: Antibacterial activity against Enterococcus faecalis 14-5.
Test [5] deals with Staphylococcus epidermidis. As to the kind of experiment: Antibacterial activity against methicillin-sensitive Staphylococcus epidermidis 14-1.
Test [6] deals with Staphylococcus aureus. As to the kind of experiment: Antibacterial activity against methicillin-resistant Staphylococcus aureus 14-4.
Test [7] concerns Staphylococcus aureus. As to the kind of experiment: Antibacterial activity against methicillin-resistant Staphylococcus aureus 14-1.
Test [8] deals with Enterococcus faecalis. The test is described as follows: Antibacterial activity against Enterococcus faecalis 14-2.
The subject of test [9] is Staphylococcus epidermidis. The test is described as follows: Antibacterial activity against methicillin-resistant Staphylococcus epidermidis 14-1.
The test system of test [10] is Escherichia coli. As to the kind of experiment: Antibacterial activity against Escherichia coli 14-1 expressing extended-spectrum beta-lactamase.
Test [11] has as its system Enterococcus faecalis. As to the kind of experiment: Antibacterial activity against Enterococcus faecalis 14-3.
Test [12] relates to Staphylococcus aureus. The test is described as follows: Antibacterial activity against methicillin-sensitive Staphylococcus aureus 14-2.
In test [13] the test system is Staphylococcus aureus. As to the kind of experiment: Antibacterial activity against methicillin-sensitive Staphylococcus aureus 14-3.
The subject of test [14] is Escherichia coli. The test is described as follows: Antibacterial activity against Escherichia coli 14-1.
In test [15] the test system is Enterococcus faecalis. As to the kind of experiment: Antibacterial activity against Enterococcus faecalis 14-1.
Test [16] relates to Staphylococcus aureus. As to the kind of experiment: Antibacterial activity against methicillin-sensitive Staphylococcus aureus 14-4.
Test [17] concerns Staphylococcus epidermidis. The test is described as follows: Antibacterial activity against methicillin-resistant Staphylococcus epidermidis 14-4.
The test system of test [18] is Staphylococcus epidermidis. The test is described as follows: Antibacterial activity against methicillin-sensitive Staphylococcus epidermidis 14-3.
Test [19] deals with Escherichia coli. As to the kind of experiment: Antibacterial activity against Escherichia coli 14-2 expressing extended-spectrum beta-lactamase.
Test [20] deals with Staphylococcus aureus. As to the kind of experiment: Antibacterial activity against methicillin-resistant Staphylococcus aureus 14-2.
In test [21] the test system is Escherichia coli. As to the kind of experiment: Antibacterial activity against Escherichia coli 14-2.
Test [22] deals with Staphylococcus epidermidis. As to the kind of experiment: Antibacterial activity against methicillin-resistant Staphylococcus epidermidis 14-2.
Test [23] has as its system Staphylococcus aureus. The test is described as follows: Antibacterial activity against methicillin-sensitive Staphylococcus aureus 14-1.

Regarding `CCCC[C@H](CN(O)C=O)C(=O)N1CC2(CC2)C[C@H]1C(=O)Nc1nccc(-c2cccnc2)n1`, the MIC in [1] was found to be 0.5 µg/mL (≈ 1.07 µM); in test [2], 0.25 µg/mL (≈ 0.536 µM); in [3], 0.125 µg/mL (≈ 0.268 µM); in [4], 0.5 µg/mL (≈ 1.07 µM); in test [5] it was 0.125 µg/mL (≈ 0.268 µM); in [6], 2 µg/mL (≈ 4.29 µM). In addition, the MIC in test [7] came to 2 µg/mL (≈ 4.29 µM); in test [8] it was 0.5 µg/mL (≈ 1.07 µM); in test [9], 0.25 µg/mL (≈ 0.536 µM); in test [10] it was 2 µg/mL (≈ 4.29 µM); in [11] it was 1 µg/mL (≈ 2.14 µM); in [12] it was 0.5 µg/mL (≈ 1.07 µM). The MIC was 0.5 µg/mL (≈ 1.07 µM) in [13]; > 64 µg/mL in test [14]; 0.5 µg/mL (≈ 1.07 µM) in test [15]; 0.25 µg/mL (≈ 0.536 µM) in [16]; 0.5 µg/mL (≈ 1.07 µM) in test [17]; 0.25 µg/mL (≈ 0.536 µM) in test [18]. Also, the MIC was > 64 µg/mL in [19]; 0.5 µg/mL (≈ 1.07 µM) in test [20]; > 64 µg/mL in [21]; 0.25 µg/mL (≈ 0.536 µM) in test [22]; 0.25 µg/mL (≈ 0.536 µM) in [23].
In the case of `C[C@H]1COc2c(N3CCN(C)CC3)c(F)cc3c(=O)c(C(=O)O)cn1c23.C[C@H]1COc2c(N3CCN(C)CC3)c(F)cc3c(=O)c(C(=O)O)cn1c23.O` [LEVOFLOXACIN], the MIC in test [1] was 0.5 µg/mL; in test [2], > 128 µg/mL; in [3], 16 µg/mL; in test [4], 2 µg/mL; in test [5] it was 0.5 µg/mL; in test [6], > 128 µg/mL. Besides, the MIC in [7] was determined as 128 µg/mL; in [8], 4 µg/mL; in [9], 16 µg/mL; in [10], 32 µg/mL; in test [11], 2 µg/mL; in test [12], 0.5 µg/mL. Also, the minimum inhibitory concentration (MIC) was determined as 32 µg/mL in test [13]; 2 µg/mL in test [15]; 16 µg/mL in test [16]; 16 µg/mL in [17]; 0.5 µg/mL in test [18]; 64 µg/mL in test [19]. The minimal inhibitory concentration (MIC) was > 128 µg/mL in test [20], 16 µg/mL in [22] and 16 µg/mL in [23].
As to `CCCC[C@H](CN(O)C=O)C(=O)N1CC2(CC2)C[C@H]1c1nnc(-c2ccccn2)o1`, the minimum inhibitory concentration (MIC) worked out at 1 µg/mL (≈ 2.42 µM) in test [1]; 2 µg/mL (≈ 4.84 µM) in test [2]; 0.5 µg/mL (≈ 1.21 µM) in [3]; 8 µg/mL (≈ 19.3 µM) in test [4]; 1 µg/mL (≈ 2.42 µM) in test [5]; 4 µg/mL (≈ 9.67 µM) in [6]. Besides, the MIC turned out to be 4 µg/mL (≈ 9.67 µM) in [7]; 8 µg/mL (≈ 19.3 µM) in [8]; 1 µg/mL (≈ 2.42 µM) in test [9]; 0.5 µg/mL (≈ 1.21 µM) in test [10]; 8 µg/mL (≈ 19.3 µM) in [11]; 2 µg/mL (≈ 4.84 µM) in [12]. Also, the minimum inhibitory concentration (MIC) in [13] was determined as 2 µg/mL (≈ 4.84 µM); in test [14], 128 µg/mL (≈ 310 µM); in [15], 4 µg/mL (≈ 9.67 µM); in [16], 2 µg/mL (≈ 4.84 µM); in [17], 4 µg/mL (≈ 9.67 µM); in test [18], 0.5 µg/mL (≈ 1.21 µM). Also, the MIC worked out at 64 µg/mL (≈ 155 µM) in test [19]; 4 µg/mL (≈ 9.67 µM) in [20]; 64 µg/mL (≈ 155 µM) in test [21]; 0.5 µg/mL (≈ 1.21 µM) in [22]; 4 µg/mL (≈ 9.67 µM) in test [23].
For `CCCC[C@H](CN(O)C=O)C(=O)N1CC2(CC2)C[C@H]1C(=O)Nc1cccc(Nc2ncccn2)c1`, the MIC was found to be 0.25 µg/mL (≈ 0.52 µM) in [1]; 0.125 µg/mL (≈ 0.26 µM) in [2]; 0.06 µg/mL (≈ 0.125 µM) in test [3]; 1 µg/mL (≈ 2.08 µM) in test [4]; 0.125 µg/mL (≈ 0.26 µM) in test [5]; 0.25 µg/mL (≈ 0.52 µM) in test [6]. Further, the MIC in test [7] was 0.25 µg/mL (≈ 0.52 µM); in test [8], 1 µg/mL (≈ 2.08 µM); in [9] it was 0.125 µg/mL (≈ 0.26 µM); in [10], 1 µg/mL (≈ 2.08 µM); in test [11], 1 µg/mL (≈ 2.08 µM); in [12], 0.25 µg/mL (≈ 0.52 µM). The MIC in test [13] is 0.25 µg/mL (≈ 0.52 µM); in test [14], 128 µg/mL (≈ 266 µM); in test [15] it was 0.5 µg/mL (≈ 1.04 µM); in test [16] it was 0.125 µg/mL (≈ 0.26 µM); in [17] it was 0.25 µg/mL (≈ 0.52 µM); in test [18], 0.125 µg/mL (≈ 0.26 µM). For the same compound, the MIC came to 64 µg/mL (≈ 133 µM) in [19]; 0.25 µg/mL (≈ 0.52 µM) in test [20]; 128 µg/mL (≈ 266 µM) in test [21]; 0.25 µg/mL (≈ 0.52 µM) in test [22]; 0.25 µg/mL (≈ 0.52 µM) in [23].
Consider `CO[C@H]1/C=C/O[C@@]2(C)Oc3c(C)c(O)c4c(O)c(c(/C=N/N5CCN(C)CC5)c(O)c4c3C2=O)NC(=O)/C(C)=C\C=C\[C@H](C)[C@H](O)[C@@H](C)[C@@H](O)[C@@H](C)[C@H](OC(C)=O)[C@@H]1C` [RIFAMPIN], for which the MIC is < 0.008 µg/mL in test [1]; > 128 µg/mL in test [2]; 0.008 µg/mL (≈ 0.00972 µM) in [3]; 4 µg/mL (≈ 4.86 µM) in test [4]; < 0.008 µg/mL in test [5]; > 128 µg/mL in test [6]. In addition, the MIC is > 128 µg/mL in [7]; 2 µg/mL (≈ 2.43 µM) in test [8]; 2 µg/mL (≈ 2.43 µM) in test [10]; 2 µg/mL (≈ 2.43 µM) in test [11]; 0.008 µg/mL (≈ 0.00972 µM) in [12]; 0.008 µg/mL (≈ 0.00972 µM) in [13]. Moreover, the MIC is 2 µg/mL (≈ 2.43 µM) in test [14]; 1 µg/mL (≈ 1.22 µM) in [15]; < 0.008 µg/mL in [16]; < 0.008 µg/mL in test [17]; 0.008 µg/mL (≈ 0.00972 µM) in test [18]; 2 µg/mL (≈ 2.43 µM) in test [19]. For the same compound, the minimal inhibitory concentration (MIC) in [20] was > 128 µg/mL; in test [21] it was 2 µg/mL (≈ 2.43 µM); in [23], < 0.008 µg/mL.
